Test results reported in patent publication US9029336B2, “Xenobiotic related induction of gene expression” (The University of Sydney, priority 1998, dated 2015).

Target: T1, hPXR (Homo sapiens, UniProt O75469)
T1 sequence (O75469 1-434): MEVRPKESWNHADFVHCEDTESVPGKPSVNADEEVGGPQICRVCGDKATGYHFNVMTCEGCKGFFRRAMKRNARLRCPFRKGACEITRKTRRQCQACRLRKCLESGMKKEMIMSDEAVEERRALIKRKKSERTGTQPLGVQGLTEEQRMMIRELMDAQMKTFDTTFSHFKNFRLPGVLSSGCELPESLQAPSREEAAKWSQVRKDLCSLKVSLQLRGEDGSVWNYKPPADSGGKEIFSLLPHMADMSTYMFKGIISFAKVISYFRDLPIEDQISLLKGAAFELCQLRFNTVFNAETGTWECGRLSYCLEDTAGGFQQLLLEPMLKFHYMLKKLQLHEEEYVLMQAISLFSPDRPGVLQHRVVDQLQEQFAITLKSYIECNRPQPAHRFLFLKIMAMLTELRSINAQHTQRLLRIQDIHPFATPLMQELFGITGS
Experiment: CYP3A4 XREM reporter construct cotransfected with hPXR expression vector (pSG-hPXR) in HepG2 cells
Details: FIG. 4; for action on the XREM via the hPXR: HepG2, XREM reporter + hPXR expression vector
Source text: The present inventors cotransfected a CYP3A4 5′-flanking region construct, containing the XREM and linked to a luciferase reporter, into HepG2 cells either with or without a hPXR expression construct (pSG-hPXR).
Many drugs induce the transcription of the CYP3A4 gene.

SMILES | action on the XREM via the hPXR | induction of the XREM construct (HepG2 cells transfected with XREM reporter)
Clc1ccccc1C(c1ccccc1)(c1ccccc1)n1ccnc1 [clotrimazole] | act on the XREM via the hPXR | induced the XREM construct in a manner analogous to that that occurs in vivo
CCC1(c2ccccc2)C(=O)NC(=O)NC1=O [phenobarbitone] | act on the XREM via the hPXR | 
